Active and inactive are the calls of the source.
What was measured:
[1] = molecular target: T1, Scaffold protein ILK (Homo sapiens, UniProt Q13418)
T1 sequence (Q13418 whole entry): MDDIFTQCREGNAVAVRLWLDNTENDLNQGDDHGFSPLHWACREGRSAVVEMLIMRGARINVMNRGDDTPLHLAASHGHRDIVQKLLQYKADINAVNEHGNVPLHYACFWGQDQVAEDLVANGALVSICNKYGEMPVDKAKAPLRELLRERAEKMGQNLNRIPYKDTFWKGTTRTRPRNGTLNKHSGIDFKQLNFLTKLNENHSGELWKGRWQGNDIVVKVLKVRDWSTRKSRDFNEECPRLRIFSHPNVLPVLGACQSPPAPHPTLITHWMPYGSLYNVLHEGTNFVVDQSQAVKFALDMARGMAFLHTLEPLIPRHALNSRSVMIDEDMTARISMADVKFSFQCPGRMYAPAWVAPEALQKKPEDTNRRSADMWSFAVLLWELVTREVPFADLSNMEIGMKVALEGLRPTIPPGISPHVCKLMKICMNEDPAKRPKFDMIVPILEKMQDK

[2] = molecular target: T2, Uncharacterized protein FLJ45252 (Homo sapiens, UniProt Q6ZSR9); details: read-out: Kd apparent; k-562, colo 205, sk-n-be(2) and mv-4-11
T2 sequence (Q6ZSR9 whole entry): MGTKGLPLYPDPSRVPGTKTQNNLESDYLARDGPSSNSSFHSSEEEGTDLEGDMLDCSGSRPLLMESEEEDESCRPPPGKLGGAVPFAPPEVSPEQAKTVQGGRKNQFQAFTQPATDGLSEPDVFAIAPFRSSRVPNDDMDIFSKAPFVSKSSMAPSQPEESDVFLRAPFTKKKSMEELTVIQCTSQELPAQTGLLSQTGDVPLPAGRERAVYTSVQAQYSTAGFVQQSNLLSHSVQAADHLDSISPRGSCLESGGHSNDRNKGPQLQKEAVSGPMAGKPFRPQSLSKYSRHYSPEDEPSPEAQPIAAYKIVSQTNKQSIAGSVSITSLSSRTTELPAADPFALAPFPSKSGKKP

[3] = molecular target: 26S proteasome regulatory subunit 6B (Homo sapiens, UniProt P43686)
[4] = molecular target: T3, STE20-related kinase adapter protein alpha (Homo sapiens, UniProt Q7RTN6)
T3 sequence (Q7RTN6 whole entry): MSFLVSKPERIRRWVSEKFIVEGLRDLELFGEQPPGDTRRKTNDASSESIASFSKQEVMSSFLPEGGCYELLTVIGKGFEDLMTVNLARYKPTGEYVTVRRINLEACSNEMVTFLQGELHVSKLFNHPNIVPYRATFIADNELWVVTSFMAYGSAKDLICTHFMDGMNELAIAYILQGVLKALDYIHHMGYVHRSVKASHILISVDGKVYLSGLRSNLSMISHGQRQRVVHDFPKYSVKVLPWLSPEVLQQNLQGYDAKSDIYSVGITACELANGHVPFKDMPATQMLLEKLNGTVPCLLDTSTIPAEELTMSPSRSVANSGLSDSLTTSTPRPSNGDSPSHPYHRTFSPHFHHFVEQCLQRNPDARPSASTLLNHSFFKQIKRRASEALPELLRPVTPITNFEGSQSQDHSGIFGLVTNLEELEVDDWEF

[5] = molecular target: cAMP-dependent protein kinase type II-alpha regulatory subunit (Homo sapiens, UniProt P13861)
[6] = molecular target: Myosin light chain kinase, smooth muscle (Homo sapiens, UniProt Q15746)
[7] = molecular target: Mitogen-activated protein kinase kinase kinase kinase 1 (Homo sapiens, UniProt Q92918)
[8] = molecular target: T4, Serine/threonine-protein kinase TBK1 (Homo sapiens, UniProt Q9UHD2)
T4 sequence (Q9UHD2 whole entry): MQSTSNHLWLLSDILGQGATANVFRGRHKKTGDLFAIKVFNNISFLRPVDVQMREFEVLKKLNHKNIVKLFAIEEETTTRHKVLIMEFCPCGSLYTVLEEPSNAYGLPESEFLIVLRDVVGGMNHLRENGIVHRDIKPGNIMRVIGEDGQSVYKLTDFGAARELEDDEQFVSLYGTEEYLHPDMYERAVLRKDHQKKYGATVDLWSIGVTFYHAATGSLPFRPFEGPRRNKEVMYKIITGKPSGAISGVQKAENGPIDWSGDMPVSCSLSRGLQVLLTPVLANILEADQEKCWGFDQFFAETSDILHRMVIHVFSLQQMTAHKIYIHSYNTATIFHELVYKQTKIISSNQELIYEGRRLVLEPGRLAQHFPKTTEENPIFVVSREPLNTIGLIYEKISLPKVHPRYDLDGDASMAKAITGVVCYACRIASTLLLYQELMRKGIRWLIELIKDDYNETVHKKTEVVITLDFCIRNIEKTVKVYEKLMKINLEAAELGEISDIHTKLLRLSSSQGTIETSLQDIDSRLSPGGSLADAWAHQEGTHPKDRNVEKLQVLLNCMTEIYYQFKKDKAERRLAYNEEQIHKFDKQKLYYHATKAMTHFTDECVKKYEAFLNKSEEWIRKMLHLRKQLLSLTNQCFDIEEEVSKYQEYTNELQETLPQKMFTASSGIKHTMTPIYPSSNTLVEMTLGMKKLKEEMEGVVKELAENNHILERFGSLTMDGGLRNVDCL

[9] = molecular target: T5, Ras-related protein Rab-10 (Homo sapiens, UniProt P61026)
T5 sequence (P61026 whole entry): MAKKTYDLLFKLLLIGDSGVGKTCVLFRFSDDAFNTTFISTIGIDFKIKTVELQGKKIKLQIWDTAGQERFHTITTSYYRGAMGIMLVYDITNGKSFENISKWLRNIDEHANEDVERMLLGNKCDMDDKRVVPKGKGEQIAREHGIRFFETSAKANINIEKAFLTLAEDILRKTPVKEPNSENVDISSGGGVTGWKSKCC

[10] = molecular target: Cyclin-dependent kinase 3 (Homo sapiens, UniProt Q00526)
[11] = molecular target: Structural maintenance of chromosomes protein 2 (Homo sapiens, UniProt O95347)
[12] = molecular target: Activated CDC42 kinase 1 (Homo sapiens, UniProt Q07912)

Measured: Kd
Note: in the data inactive means no Kd found up to 30 µM.

Mitogen-activated protein kinase kinase kinase kinase 1, sequence (Q92918 whole entry): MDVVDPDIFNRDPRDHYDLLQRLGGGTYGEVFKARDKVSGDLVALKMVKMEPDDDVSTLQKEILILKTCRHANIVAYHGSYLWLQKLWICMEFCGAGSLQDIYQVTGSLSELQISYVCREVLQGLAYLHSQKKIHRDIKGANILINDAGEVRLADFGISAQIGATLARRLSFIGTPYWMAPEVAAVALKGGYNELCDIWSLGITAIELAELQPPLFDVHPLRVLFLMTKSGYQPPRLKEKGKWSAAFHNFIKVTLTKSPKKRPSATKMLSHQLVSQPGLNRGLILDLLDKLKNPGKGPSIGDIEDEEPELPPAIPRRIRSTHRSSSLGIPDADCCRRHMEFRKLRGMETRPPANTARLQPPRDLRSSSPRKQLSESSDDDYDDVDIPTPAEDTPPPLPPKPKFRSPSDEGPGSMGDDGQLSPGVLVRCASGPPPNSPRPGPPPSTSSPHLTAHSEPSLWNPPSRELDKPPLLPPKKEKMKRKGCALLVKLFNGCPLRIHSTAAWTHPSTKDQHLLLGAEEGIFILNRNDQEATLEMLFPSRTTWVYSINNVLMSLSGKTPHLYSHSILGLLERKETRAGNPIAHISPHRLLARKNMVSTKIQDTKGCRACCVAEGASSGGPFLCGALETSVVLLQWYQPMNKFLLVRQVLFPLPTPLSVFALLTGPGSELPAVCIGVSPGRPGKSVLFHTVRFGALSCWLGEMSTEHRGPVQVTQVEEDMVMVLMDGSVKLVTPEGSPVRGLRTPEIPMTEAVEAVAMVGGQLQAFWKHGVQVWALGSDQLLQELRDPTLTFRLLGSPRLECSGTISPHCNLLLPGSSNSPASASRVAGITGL
Cyclin-dependent kinase 3, sequence (Q00526 whole entry): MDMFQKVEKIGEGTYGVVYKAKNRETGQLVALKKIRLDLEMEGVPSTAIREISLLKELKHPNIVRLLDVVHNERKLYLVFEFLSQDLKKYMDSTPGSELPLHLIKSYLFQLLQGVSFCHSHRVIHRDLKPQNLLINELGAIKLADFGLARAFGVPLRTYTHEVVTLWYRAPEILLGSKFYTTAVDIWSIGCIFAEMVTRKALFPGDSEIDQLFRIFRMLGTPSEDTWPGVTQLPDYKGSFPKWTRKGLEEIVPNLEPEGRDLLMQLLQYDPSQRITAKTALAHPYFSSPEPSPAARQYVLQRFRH
cAMP-dependent protein kinase type II-alpha regulatory subunit, sequence (P13861 whole entry): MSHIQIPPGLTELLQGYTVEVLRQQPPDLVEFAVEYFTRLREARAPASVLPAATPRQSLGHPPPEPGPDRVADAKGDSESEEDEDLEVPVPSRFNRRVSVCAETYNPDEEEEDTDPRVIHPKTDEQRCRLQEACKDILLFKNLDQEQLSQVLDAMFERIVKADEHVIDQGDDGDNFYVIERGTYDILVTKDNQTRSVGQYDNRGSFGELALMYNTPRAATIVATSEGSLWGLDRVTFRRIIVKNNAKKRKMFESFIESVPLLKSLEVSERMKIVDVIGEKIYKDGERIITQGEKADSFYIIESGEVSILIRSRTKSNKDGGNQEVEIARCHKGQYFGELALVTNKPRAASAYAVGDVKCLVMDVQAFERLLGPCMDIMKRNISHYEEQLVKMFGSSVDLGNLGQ
Structural maintenance of chromosomes protein 2, sequence (O95347 whole entry): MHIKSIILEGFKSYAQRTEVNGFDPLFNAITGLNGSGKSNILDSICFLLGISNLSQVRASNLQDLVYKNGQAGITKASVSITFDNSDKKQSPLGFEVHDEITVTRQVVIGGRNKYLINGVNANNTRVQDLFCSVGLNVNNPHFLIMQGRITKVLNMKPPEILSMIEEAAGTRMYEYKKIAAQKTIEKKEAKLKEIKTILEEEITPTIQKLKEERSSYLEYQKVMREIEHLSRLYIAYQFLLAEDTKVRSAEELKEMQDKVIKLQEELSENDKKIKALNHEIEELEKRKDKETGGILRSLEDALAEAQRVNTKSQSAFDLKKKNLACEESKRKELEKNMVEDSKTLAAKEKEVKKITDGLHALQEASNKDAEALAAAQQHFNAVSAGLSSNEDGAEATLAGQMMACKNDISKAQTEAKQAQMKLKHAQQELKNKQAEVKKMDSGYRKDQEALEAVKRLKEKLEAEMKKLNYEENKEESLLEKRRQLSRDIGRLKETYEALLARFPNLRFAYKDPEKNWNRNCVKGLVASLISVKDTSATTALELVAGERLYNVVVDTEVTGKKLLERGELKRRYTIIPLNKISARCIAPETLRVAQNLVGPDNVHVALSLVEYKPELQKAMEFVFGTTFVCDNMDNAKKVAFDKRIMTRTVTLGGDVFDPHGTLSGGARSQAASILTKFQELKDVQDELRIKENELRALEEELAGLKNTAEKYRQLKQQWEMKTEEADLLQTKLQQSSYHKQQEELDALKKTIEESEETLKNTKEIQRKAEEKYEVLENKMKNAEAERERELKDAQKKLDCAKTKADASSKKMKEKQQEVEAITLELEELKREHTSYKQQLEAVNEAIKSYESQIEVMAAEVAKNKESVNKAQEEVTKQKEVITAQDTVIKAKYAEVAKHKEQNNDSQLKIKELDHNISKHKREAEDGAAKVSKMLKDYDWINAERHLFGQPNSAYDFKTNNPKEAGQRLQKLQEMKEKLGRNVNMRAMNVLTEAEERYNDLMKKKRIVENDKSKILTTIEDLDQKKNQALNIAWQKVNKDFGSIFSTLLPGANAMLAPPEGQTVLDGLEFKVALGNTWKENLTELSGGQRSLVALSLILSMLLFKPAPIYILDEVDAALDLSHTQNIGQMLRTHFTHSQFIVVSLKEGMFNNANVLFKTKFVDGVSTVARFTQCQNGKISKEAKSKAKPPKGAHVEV
Myosin light chain kinase, smooth muscle, sequence (Q15746 whole entry): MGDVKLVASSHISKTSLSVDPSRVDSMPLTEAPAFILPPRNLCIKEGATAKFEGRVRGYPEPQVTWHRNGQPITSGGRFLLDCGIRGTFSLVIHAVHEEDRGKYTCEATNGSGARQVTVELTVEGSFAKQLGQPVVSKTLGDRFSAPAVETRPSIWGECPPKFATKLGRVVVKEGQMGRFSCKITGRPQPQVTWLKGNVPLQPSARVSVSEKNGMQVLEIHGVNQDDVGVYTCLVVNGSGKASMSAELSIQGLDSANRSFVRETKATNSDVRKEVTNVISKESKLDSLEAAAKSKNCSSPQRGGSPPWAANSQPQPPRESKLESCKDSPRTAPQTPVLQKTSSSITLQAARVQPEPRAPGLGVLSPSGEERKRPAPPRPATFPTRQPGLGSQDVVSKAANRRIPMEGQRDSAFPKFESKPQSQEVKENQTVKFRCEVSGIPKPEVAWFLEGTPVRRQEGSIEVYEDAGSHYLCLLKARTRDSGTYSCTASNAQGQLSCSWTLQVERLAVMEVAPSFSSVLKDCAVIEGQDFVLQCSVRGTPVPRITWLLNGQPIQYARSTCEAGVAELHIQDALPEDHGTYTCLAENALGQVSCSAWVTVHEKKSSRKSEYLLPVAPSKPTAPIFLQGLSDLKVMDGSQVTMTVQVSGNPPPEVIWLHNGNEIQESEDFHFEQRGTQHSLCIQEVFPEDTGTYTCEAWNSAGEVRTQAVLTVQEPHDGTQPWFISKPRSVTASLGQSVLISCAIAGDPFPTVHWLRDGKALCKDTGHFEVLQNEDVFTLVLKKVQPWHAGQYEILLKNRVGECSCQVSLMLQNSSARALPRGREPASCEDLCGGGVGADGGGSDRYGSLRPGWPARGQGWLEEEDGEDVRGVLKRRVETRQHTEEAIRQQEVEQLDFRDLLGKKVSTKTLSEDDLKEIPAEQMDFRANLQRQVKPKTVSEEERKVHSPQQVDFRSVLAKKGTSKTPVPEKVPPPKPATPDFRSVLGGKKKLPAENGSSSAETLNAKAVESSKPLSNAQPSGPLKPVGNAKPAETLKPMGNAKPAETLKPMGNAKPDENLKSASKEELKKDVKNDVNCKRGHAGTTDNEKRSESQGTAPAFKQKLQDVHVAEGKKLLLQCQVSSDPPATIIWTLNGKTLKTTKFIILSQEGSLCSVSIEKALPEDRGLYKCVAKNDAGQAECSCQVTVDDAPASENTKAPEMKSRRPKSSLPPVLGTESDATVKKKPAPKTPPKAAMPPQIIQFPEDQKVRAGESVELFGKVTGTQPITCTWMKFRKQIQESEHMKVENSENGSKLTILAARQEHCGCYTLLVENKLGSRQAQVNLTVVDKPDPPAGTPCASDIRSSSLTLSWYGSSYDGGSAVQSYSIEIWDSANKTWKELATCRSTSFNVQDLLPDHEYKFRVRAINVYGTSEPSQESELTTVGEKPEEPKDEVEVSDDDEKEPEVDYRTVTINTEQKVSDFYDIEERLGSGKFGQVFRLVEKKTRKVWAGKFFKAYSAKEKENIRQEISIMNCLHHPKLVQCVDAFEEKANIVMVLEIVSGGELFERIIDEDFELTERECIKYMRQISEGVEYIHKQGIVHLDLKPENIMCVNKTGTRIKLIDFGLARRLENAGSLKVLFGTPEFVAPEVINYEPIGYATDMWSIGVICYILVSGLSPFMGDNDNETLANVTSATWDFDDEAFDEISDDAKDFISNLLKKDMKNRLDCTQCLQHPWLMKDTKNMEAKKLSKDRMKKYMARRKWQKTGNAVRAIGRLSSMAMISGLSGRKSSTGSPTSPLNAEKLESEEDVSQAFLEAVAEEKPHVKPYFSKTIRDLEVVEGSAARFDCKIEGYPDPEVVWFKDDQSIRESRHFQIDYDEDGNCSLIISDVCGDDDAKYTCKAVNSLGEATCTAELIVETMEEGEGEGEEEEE
26S proteasome regulatory subunit 6B, sequence (P43686 whole entry): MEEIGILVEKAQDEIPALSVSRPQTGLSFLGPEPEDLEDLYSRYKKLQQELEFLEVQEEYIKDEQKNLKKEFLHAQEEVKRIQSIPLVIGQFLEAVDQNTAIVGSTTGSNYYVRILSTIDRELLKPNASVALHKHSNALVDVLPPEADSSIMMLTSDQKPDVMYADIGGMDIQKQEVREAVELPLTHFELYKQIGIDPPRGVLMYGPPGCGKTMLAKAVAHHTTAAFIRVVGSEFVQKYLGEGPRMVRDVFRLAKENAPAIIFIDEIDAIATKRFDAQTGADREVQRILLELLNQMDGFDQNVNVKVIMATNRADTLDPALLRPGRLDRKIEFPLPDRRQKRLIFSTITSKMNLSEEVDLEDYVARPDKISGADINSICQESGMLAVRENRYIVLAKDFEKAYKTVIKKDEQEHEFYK

Cc1cc(Nc2ncnc3ccc(NC4=NC(C)(C)CO4)cc23)ccc1Oc1ccn2ncnc2c1 [TUCATINIB]
inactive: [1] > 30 µM | [2] > 30 µM | [3] > 30 µM | [4] > 30 µM | [5] > 30 µM | [6] > 30 µM | [7] > 30 µM | [8] > 30 µM | [9] > 30 µM | [10] > 30 µM | [11] > 30 µM | [12] > 30 µM

CN1C/C=C/CCOc2cccc(c2)-c2ccnc(n2)Nc2cccc(c2)C1 [ZOTIRACICLIB]
inactive: [1] > 30 µM | [2] > 30 µM | [3] > 30 µM | [4] > 30 µM | [5] > 30 µM | [6] > 30 µM | [7] > 30 µM | [8] > 30 µM | [9] > 30 µM | [10] > 30 µM | [11] > 30 µM | [12] > 30 µM

From ChEMBL document CHEMBL3991601, “The target landscape of clinical kinase drugs” (Science, 2017)
